# Entries after “also recorded” stand apart in the source; their conditions may differ.
# Experiments:
# P. multocida cells = test: SEM and TEM morphology of bacterial cells; format: cell-based, Pasteurella multocida; conditions: MT 1, 2 or 3 mg/mL, 8, 12 or 16 hours
# Procedure: The effect of melatonin on the morphologies of P. multocida cells were evaluated employing SEM and TEM. 1 mL of fresh Pasteurella multocida (1×10^9 CFU) at the logarithmic growth stage was added into 100 mL of fresh Martin liquid medium containing different concentrations (1, 2 or 3 mg/mL) of MT. MT-free DMSO was used as a solvent control group and ampicillin (100 μg/mL) was used as a positive control group. All cultures were shaken at 220 rpm in a shaker at 37° C. for 8 hours, 12 hours or 16 hours. The bacterial samples were centrifuged at 3000 r/min for 10 minutes, the supernatant was removed, and cells were collected and washed with PBS for 3 times. Then the cells were fixed with a fixation solution of 2.5% fresh glutaraldehyde for 6 hours, and washed with PBS for 3 times, each time for 10 minutes. Subsequently, the SEM samples were dehydrated with 50%, 70%, 80% and 90% ethanol for 15 minutes respectively, and then dehydrated with 100% ethanol for 3 times, each time for 30 minutes. Ethanol was removed by washing with tert-butyl alcohol for three times, each time for 30 minutes. The samples were dried by a freeze dryer and plated with 10 nm of gold film by an ion sputtering device. The samples were examined using a field scanning electron microscope (FESEM, Hitch SU8010).
# The TEM samples were fixed with 1%-2% […] for 2-3 hours, and washed with […] 3 times, each time for 10 minutes. The samples were dehydrated with 30%, 50%, 70%, 80% and 90% ethanol for 20 minutes respectively, and then dehydrated with 100% ethanol 3 times, each time for 30 minutes. Ethanol was replaced with acetone three times, each time for 30 minutes. The bacterial samples were placed on a copper grid with a formvar membrane, and negatively stained with phosphotungstic acid (2% v/v, pH=6.7). The surface area of the sample was less than 0.2 mm×0.2 mm, and slice thickness was between 50 and 90 nm (Lycra UC7). The samples were detected by TEM (Hitachi H-7650) at 80 kV, and photographs of the samples were taken by a Gatan832 CCD camera (Gatan). […]
# [1] = biological target: T1, citrate synthase in lung epithelial cells (Mus musculus, UniProt Q9CZU6); test: Citrate synthase enzyme activity in lung epithelial cells; format: cell-based; conditions: melatonin up to 40 mg/mL; 1MOI Pasteurella multocida, 12 h; FIG. 26
# T1 construct: lysed by ultrasound at a low temperature, and then the enzyme activity of citrate synthase was analyzed; endogenous in cells; host or cells: mouse lung epithelial cells
# Procedure: 2×10^5 mouse lung epithelial cells per well were inoculated into a 48-well microplate, and cultured in a 5% CO2 incubator at 37° C. until full confluence of the cells. The non-adherent cells were washed away with 1×PBS, and the cells were treated with melatonin with the final concentrations of 1, 2, 3, 10, 20 and 40 mg/ml, while the control group was treated with the same volume of DMSO. After melatonin treatment for 30 min, 1MOI Pasteurella multocida was added into the culture medium for continue culture. After 12 h, the bacterial cells were collected, lysed by ultrasound at a low temperature, and then the enzyme activity of citrate synthase was analyzed. For specific test steps, please refer to the kit for detecting the enzyme activity of the citrate synthase. Each experiment was repeated three times, and each group was set in hexaplicate.
# Pasteurella multocida [2] = test: LIVE/DEAD BacLight integrity of bacterial cell membrane; format: cell-based; conditions: melatonin greater than the MIC concentration; 8, 12, 16 hours; time- and dose-dependent; FIG. 9
# Procedure: The integrity of bacterial cell membrane was evaluated with a LIVE/DEAD BacLight bacterial detection kit. 1 mL of bacterial culture was centrifuged at 3000 rpm for 10 minutes, the supernatant was removed, and the cells were washed with 10 mL of 0.85% NaCl for 3 times. The precipitated cells were resuspended and mixed with 1 mL of 0.85% NaCl. Then a mixture of SYTO9 fluorescent nucleic acid dye and propidium iodide mixed at the equal volume (3 μL each) was added into the resuspended solution. The mixture was thoroughly mixed and incubated in the dark at room temperature for 15 minutes. 5 μL of suspension of stained bacteria was added between a slide glass and a 18 mm square cover glass. (The combination of two nucleic acid dyes in this kit can distinguish living bacteria with intact membranes from dead bacteria with damaged membranes.) The living bacteria were dyed green with SYTO9, while the dead bacteria presented as red because of the interaction between propidium iodide and the double-stranded DNA of the bacteria. The fluorescence micrographs of stained bacteria were taken by OLYMPUS IX51 inverted microscope. Each experiment was carried out in triplicate for three times.
# [3] = biological target: T2, citrate synthase in Pseudomonas aeruginosa (Pseudomonas aeruginosa, UniProt P14165); test: Citrate synthase activity of bacteria after treatment; format: cell-based; conditions: MT 1-3 mg/mL, 12 h, FIG. 28
# T2 construct: The bacterial cells were then collected and determined for citrate synthase activity according to the protocol of the instructions for the kit; endogenous in cells; host or cells: Pseudomonas aeruginosa culture
# Procedure: (§1) Further, 1 mL of Klebsiella pneumoniae, Pseudomonas aeruginosa, Diplococcus pneumoniae and Streptococcus pneumoniae at the logarithmic growth stage was added into 100 mL of fresh and sterile Martin broth liquid medium containing different concentrations of melatonin and citric acid (MT-1 mg/mL, MT-2 mg/mL, MT-3 mg/mL, CA-1 mg/mL, CA-2 mg/mL, CA-3 mg/mL, MT-1 mg/mL-CA-1 mg/mL, MT-2 mg/mL-CA-2 mg/mL, MT-3 mg/mL-CA-3 mg/mL) added was. Melatonin-free DMSO was used as the solvent control group, and the bacterial cells were cultured in a constant-temperature shaker at 37° C. and 220 rpm for 12 h. Thereafter, 1 mL of the bacterial solution was pipetted and centrifuged at 3000 r/min for 10 minutes. The bacterial cells were then collected and determined for citrate synthase activity according to the protocol of the instructions for the kit. Each experiment was repeated three times, and each group was set in triplicate.
# [4] = test system: citrate synthase in Klebsiella pneumoniae; test: as above; format: cell-based; conditions: MT 1-3 mg/mL, 12 h, FIG. 28
# Procedure: as §1
# Pasteurella multocida [5] = test: Bacteriostatic activity, bacterial growth curve (OD600); format: cell-based; conditions: MT 1, 1.5 and 2 mg/mL (lower than MBC); OD600 every 2 hours; FIG. 1
# Procedure: In order to further verify the bacteriostatic activity of melatonin against Pasteurella multocida, the bacterial growth curve was determined in view of an increase of melatonin concentration. […] Then the bacteria were cultured in a shaker at a constant temperature of 37° C. at 220 rpm, and the bacterial culture was determined for OD600 every 2 hours with an ultraviolet spectrophotometer to detect the effect of melatonin on the bacterial growth curve. Each experiment was carried out for three times, and each group was set in triplicate.
# T1 sequence (Q9CZU6 28-464): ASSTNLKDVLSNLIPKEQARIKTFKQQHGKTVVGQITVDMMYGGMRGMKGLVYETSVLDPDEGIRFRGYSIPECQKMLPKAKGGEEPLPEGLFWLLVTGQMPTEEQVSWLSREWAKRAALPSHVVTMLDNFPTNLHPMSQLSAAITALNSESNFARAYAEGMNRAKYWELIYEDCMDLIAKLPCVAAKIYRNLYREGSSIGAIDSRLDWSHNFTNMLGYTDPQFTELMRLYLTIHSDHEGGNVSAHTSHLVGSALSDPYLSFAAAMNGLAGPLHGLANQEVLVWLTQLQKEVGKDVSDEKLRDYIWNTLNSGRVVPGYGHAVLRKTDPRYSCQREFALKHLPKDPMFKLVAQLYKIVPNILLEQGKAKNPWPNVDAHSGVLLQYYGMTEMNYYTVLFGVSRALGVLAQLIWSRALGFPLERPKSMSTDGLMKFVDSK
# T2 sequence (P14165 whole entry): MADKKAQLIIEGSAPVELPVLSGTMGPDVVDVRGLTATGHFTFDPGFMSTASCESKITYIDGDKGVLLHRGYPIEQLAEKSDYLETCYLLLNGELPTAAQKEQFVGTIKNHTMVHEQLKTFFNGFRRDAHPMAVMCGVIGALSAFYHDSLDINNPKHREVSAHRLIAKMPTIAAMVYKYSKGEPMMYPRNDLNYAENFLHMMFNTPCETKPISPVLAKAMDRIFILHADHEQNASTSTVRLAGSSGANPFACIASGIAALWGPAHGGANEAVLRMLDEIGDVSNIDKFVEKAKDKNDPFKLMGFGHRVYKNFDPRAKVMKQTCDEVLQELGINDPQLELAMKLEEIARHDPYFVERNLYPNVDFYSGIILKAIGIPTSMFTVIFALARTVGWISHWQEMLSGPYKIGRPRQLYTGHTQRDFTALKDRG
structure (smiles),measurement,setting,value
"COc1ccc2[nH]cc(CCNC(C)=O)c2c1 [melatonin, N-acetyl-5-methoxytryptamine]",cell morphology in SEM analysis,P. multocida cells; FIG. 10,"many holes passing through the OM, peptidoglycan (PG) layers and CM"
same,cell morphology in TEM image,P. multocida cells; FIG. 11,obvious cytoplasmic vacuolization
same,enzyme activity of citrate synthase in lung epithelial cells,[1],did not affect
same,damage to bacterial cell membrane (SYTO9 / propidium iodide fluorescence),Pasteurella multocida [2],the red fluorescence increased and the green fluorescence decreased; also recorded: damages the cell membrane
same,enzyme activity of citrate synthase,[3],significantly reduces
same,enzyme activity of citrate synthase,[4],significantly reduces
same,"bacterial growth (growth curve, OD600)",Pasteurella multocida [5],significantly inhibits bacterial growth
